Measured values published in patent US20260345624A1, “TREATMENT OF PROSTATE CANCER BY PROMOTING PDE4D7” (KONINKLIJKE PHILIPS N.V., priority 2022, published 2026).
Entries after “also recorded” stand apart in the source; their conditions may differ.

Assays:
[1] = system: PDE4D7-knockdown LNCaP P1 cells; test: xCELLigence real-time proliferation of PDE4D7-knockdown P1 LNCaP cells; format: cell-based
Excerpt: Stable shRNA-mediated lentiviral transduced LNCaP cell lines were generated by AMSBIO (Table 1). Briefly, shRNA-PDE4D7 was cloned into a lentivector and delivered into LNCaP clone FGC cells (ATCC) via lentivirus (MOI=10). Cells were maintained in puromycin-supplemented medium prior to selection of stably transduced cells. A stable shRNA-PDE4D7 LNCaP cell line was then re-transduced with lentivirus delivering PDE4D7 to generate a re-introduced cell line. Scrambled-shRNA was used as a control. All cells were cultured in RPMI 1640 medium (Gibco D), supplemented with 10% (v/v) foetal bovine serum, 1% (v/v) L-Glutamine and 1% (v/v) penicillin/streptomycin, and stored within a 37 °C incubator with 5% CO2.
(§1) xCELLigence Real-Time Cell Analysis (RTCA)
(§2) Real-time cell growth was analysed using the xCELLigence RTCA system (Agilent), which measures real-time cell adhesion across gold microelectrode biosensors on 96 well electronic plates (E-plates) within a 37 °C incubator with 5% CO2. Cellular adhesion influences electrical impedance which is converted into the cell index (CI) via RTCA software. Initial background measurements were recorded with 100 μL RPMI 1640 medium, followed by addition of 100 μL LNCaP cell suspension (10,000 cells/wells) for measurement of CI over time. Approximately 24 h after seeding, cells were treated with specified concentrations of drugs. Negative controls containing either 0.1% DMSO or untreated cells were also included. CI was transformed to normalised CI via the RTCA software to timepoint of treatment.

P1-TET4D7 LNCaP cells = test: Real-time growth of P1 LNCaP cells with Tet-On inducible PDE4D7; format: cell-based; conditions: enzalutamide 10 μM, Tet-On doxycycline-induced PDE4D7
Protocol: as §1, §2
PDE4D7 (GenBank ID AF536976) sequence was first subcloned into lentivirus vectors with CMV (LVR-1001-pLV-CMV-PGK-Puro) and then into Tet-On inducible vector pLV-tet-on-3G-P2A-Puro, LNCaP-shRNA P1 cells were maintained in RPMI1640 medium supplemented with 10% (v/v) foetal bovine serum, 1% (v/v) L-Glutamine and 1% (v/v) penicillin/streptomycin, and infected with Tet-On inducible lentivirus at MOI=5-10 in the presence of 8 μg/ml polybrene. […]

LNCaP WT cells = test: xCELLigence real-time proliferation of WT LNCaP cells; format: cell-based; conditions: for WT LNCaP growth, strongest effect: enzalutamide 1 μM and above; for WT LNCaP cell proliferation: enzalutamide 0.1-30 μM, all concentrations tested
Protocol: as §1, §2

PCa = conditions: He et al., 2019; cited from earlier work
cAMP production = conditions: Miller et al., 2013; cited from earlier work

| Compound | P1 LNCaP growth vs DMSO control ([1]; enzalutamide, higher concentrations up to 30 μM) | P1 LNCaP proliferation ([1]; enzalutamide, increasing doses 0-30 μM) | resistance to enzalutamide upon PDE4D7 knockdown ([1]; overall conclusion, 0-30 μM) | sensitivity to enzalutamide upon PDE4D7 re-expression (P1-TET4D7 LNCaP cells) | WT LNCaP growth, strongest effect (LNCaP WT cells) | WT LNCaP growth, strongest effect (LNCaP WT cells; listed as Enzalutamide) | WT LNCaP cell proliferation (LNCaP WT cells) | WT LNCaP cell proliferation (LNCaP WT cells; listed as Enzalutamide) | growth inhibition of P1 cells ([1]; metformin, only at highest concentrations tested (0-25 μM)) | growth inhibition independent of PDE4D7 expression, P1 ([1]; summary statement, WT vs P1) | overall survival/time to recurrence in PCa (PCa) | treatment/reduction of PCa tumours (PCa) | cAMP production (cAMP production) | growth of WT cells (LNCaP WT cells; metformin, all concentrations (0-25 μM)) | growth inhibition independent of PDE4D7 expression, WT (LNCaP WT cells; summary statement, WT vs P1) |
| --- | --- | --- | --- | --- | --- | --- | --- | --- | --- | --- | --- | --- | --- | --- | --- |
| CNC(=O)c1ccc(N2C(=S)N(c3ccc(C#N)c(C(F)(F)F)c3)C(=O)C2(C)C)cc1F [enzalutamide] | significantly enhanced growth; also recorded: increased growth at higher concentrations | minimal reductions in cell proliferation | confers resistance to anti-androgens such as enzalutamide | restored sensitivity to enzalutamide; also recorded: rescued upon PDE4D7 re-expression | least growth | most profound effects | significant decrease in WT LNCaP cell proliferation | significant decrease in WT LNCaP cell proliferation at all concentrations tested | – | – | – | – | – | – | – |
| CN(C)C(=N)N=C(N)N [metformin, Metformin] | – | – | – | – | – | – | – | – | significant inhibition was only observed in P1 cells at highest concentrations tested | reduce tumor growth independent of PDE4D7 expression levels; also recorded: inhibit LNCaP cell growth irrespective of PDE4D7 expression status | enhance overall survival/time to recurrence | no evidence of it treating/reducing the PCa tumours itself | decrease CAMP production | significantly reducing growth of WT cells at all concentrations | reduce tumor growth independent of PDE4D7 expression levels; also recorded: inhibit LNCaP cell growth irrespective of PDE4D7 expression status |
